Laboratory results: patent US10301280B2 (Plexxikon Inc., priority 2012, dated 2019)

Tested on: BaF3-FL KIT D816V or BaF3-FL KIT V560G/D816V cell line
Test: Cell-based assays of c-Kit mutant kinase activity (cell growth, ATPlite)
Settings: at least one of the c-kit cell assays of Example 26
In short: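 IC50 derived from ATP-content luminescence (ATPlite) after three-day compound exposure at 37° C., 5% CO2. Cells: BaF3 rendered growth-dependent on full-length human KIT D816V or V560G/D816V, 1×10^4 per well, RPMI plus 10% FBS; 8 points, 1:3 steps, maximum 10 μM final, 0.2% DMSO.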

SMILES	IC50 [µM]
COc1nccc(-c2cc3cc(NC(=O)c4n[nH]c(C)c4C)cnc3[nH]2)c1Cl [P-2249, N-(2-(3-chloro-2-methoxypyridin-4-yl)-1H-pyrrolo[2,3-b]pyridin-5-yl)-4,5-dimethyl-1H-pyrazole-3-carboxamide]	< 10
Cc1[nH]nc(C(=O)Nc2cnc3[nH]c(-c4ccncc4Cl)cc3c2)c1C [P-2250, N-(2-(3-chloropyridin-4-yl)-1H-pyrrolo[2,3-b]pyridin-5-yl)-4,5-dimethyl-1H-pyrazole-3-carboxamide]	< 10
Cc1cnccc1-c1cc2cc(NC(=O)c3n[nH]c(C)c3C)cnc2[nH]1 [P-2251, 4,5-dimethyl-N-(2-(3-methylpyridin-4-yl)-1H-pyrrolo[2,3-b]pyridin-5-yl)-1H-pyrazole-3-carboxamide]	< 10
Cc1[nH]nc(C(=O)Nc2cnc3[nH]c(-c4cncc(F)c4)cc3c2)c1C [P-2253, N-(2-(5-fluoropyridin-3-yl)-1H-pyrrolo[2,3-b]pyridin-5-yl)-4,5-dimethyl-1H-pyrazole-3-carboxamide]	< 10
Cc1[nH]nc(C(=O)Nc2cnc3[nH]c(-c4cncc(C(F)(F)F)c4)cc3c2)c1C [P-2254, 4,5-dimethyl-N-(2-(5-(trifluoromethyl)pyridin-3-yl)-1H-pyrrolo[2,3-b]pyridin-5-yl)-1H-pyrazole-3-carboxamide]	< 10
Cc1[nH]nc(C(=O)Nc2cnc3[nH]c(-c4ccc(C5CC5)nc4)cc3c2)c1C [P-2255, N-(2-(6-cyclopropylpyridin-3-yl)-1H-pyrrolo[2,3-b]pyridin-5-yl)-4,5-dimethyl-1H-pyrazole-3-carboxamide]	< 10
CCc1cncc(-c2cc3cc(NC(=O)c4n[nH]c(C)c4C)cnc3[nH]2)c1 [P-2256, N-(2-(5-ethylpyridin-3-yl)-1H-pyrrolo[2,3-b]pyridin-5-yl)-4,5-dimethyl-1H-pyrazole-3-carboxamide]	< 10
Cc1[nH]nc(C(=O)Nc2cnc3[nH]c(-c4ccccc4C(F)F)cc3c2)c1C [P-2257, N-(2-(2-(difluoromethyl)phenyl)-1H-pyrrolo[2,3-b]pyridin-5-yl)-4,5-dimethyl-1H-pyrazole-3-carboxamide]	< 10
Cc1cc(Cl)ccc1-c1cc2cc(NC(=O)c3n[nH]c(C)c3C)cnc2[nH]1 [P-2258]	< 10
Cc1cc(F)ccc1-c1cc2cc(NC(=O)c3n[nH]c(C)c3C)cnc2[nH]1 [P-2259, N-(2-(4-fluoro-2-methylphenyl)-1H-pyrrolo[2,3-b]pyridin-5-yl)-4,5-dimethyl-1H-pyrazole-3-carboxamide]	< 10
Cc1[nH]nc(C(=O)Nc2cnc3[nH]c(-c4ccc(F)cc4F)cc3c2)c1C [P-2260, N-(2-(2,4-difluorophenyl)-1H-pyrrolo[2,3-b]pyridin-5-yl)-4,5-dimethyl-1H-pyrazole-3-carboxamide]	< 10
Cc1[nH]nc(C(=O)Nc2cnc3[nH]c(-c4ccc(F)c(C#N)c4F)cc3c2)c1C [P-2261, N-(2-(3-cyano-2,4-difluorophenyl)-1H-pyrrolo[2,3-b]pyridin-5-yl)-4,5-dimethyl-1H-pyrazole-3-carboxamide]	< 10
Cc1[nH]nc(C(=O)Nc2cnc3[nH]c(-c4ccc(F)c(C)c4C)cc3c2)c1C [P-2262, N-(2-(4-fluoro-2,3-dimethylphenyl)-1H-pyrrolo[2,3-b]pyridin-5-yl)-4,5-dimethyl-1H-pyrazole-3-carboxamide]	< 10
Cc1[nH]nc(C(=O)Nc2cnc3[nH]c(-c4ccccc4OC(F)F)cc3c2)c1C [P-2263, N-(2-(2-(difluoromethoxy)phenyl)-1H-pyrrolo[2,3-b]pyridin-5-yl)-4,5-dimethyl-1H-pyrazole-3-carboxamide]	< 10
Cc1[nH]nc(C(=O)Nc2cnc3[nH]c(-c4cccc(F)c4OC(F)F)cc3c2)c1C [P-2264, N-(2-(2-(difluoromethoxy)-3-fluorophenyl)-1H-pyrrolo[2,3-b]pyridin-5-yl)-4,5-dimethyl-1H-pyrazole-3-carboxamide]	< 10
Cc1[nH]nc(C(=O)Nc2cnc3[nH]c(C4=CCOCC4)cc3c2)c1C [P-2265, N-(2-(3,6-dihydro-2H-pyran-4-yl)-1H-pyrrolo[2,3-b]pyridin-5-yl)-4,5-dimethyl-1H-pyrazole-3-carboxamide]	< 10
Cc1[nH]nc(C(=O)Nc2cnc3[nH]c(C4=CC(C)(C)NC(C)(C)C4)cc3c2)c1C [P-2266, 4,5-dimethyl-N-(2-(2,2,6,6-tetramethyl-1,2,3,6-tetrahydropyridin-4-yl)-1H-pyrrolo[2,3-b]pyridin-5-yl)-1H-pyrazole-3-carboxamide]	< 10
Cc1[nH]nc(C(=O)Nc2cnc3[nH]c(-c4cccc5c4OC(F)(F)O5)cc3c2)c1C [P-2267, N-(2-(2,2-difluorobenzo[d][1,3]dioxol-4-yl)-1H-pyrrolo[2,3-b]pyridin-5-yl)-4,5-dimethyl-1H-pyrazole-3-carboxamide]	< 10
Cn1ncc2c(C(=O)Nc3cnc4[nH]c(-c5ccccc5)cc4c3)cccc21 [P-2298, 1-methyl-N-(2-phenyl-1H-pyrrolo[2,3-b]pyridin-5-yl)indazole-4-carboxamide]	< 10
O=C(Nc1cnc2[nH]c(-c3ccccc3)cc2c1)c1cccc2[nH]ccc12 [P-2299, N-(2-phenyl-1H-pyrrolo[2,3-b]pyridin-5-yl)-1H-indole-4-carboxamide]	< 10
O=C(Nc1cnc2[nH]c(-c3ccccc3)cc2c1)c1cccc2[nH]cnc12 [P-2300, N-(2-phenyl-1H-pyrrolo[2,3-b]pyridin-5-yl)-1H-benzimidazole-4-carboxamide]	< 10
Cc1cc2cc(NC(=O)c3[nH]nc(C)c3C)cnc2[nH]1 [P-2302, 3,4-dimethyl-N-(2-methyl-1H-pyrrolo[2,3-b]pyridin-5-yl)-1H-pyrazole-5-carboxamide]	< 10
O=C(O)c1ccc(C(=O)Nc2cnc3[nH]c(-c4ccccc4)cc3c2)cc1 [P-2303, 4-[(2-phenyl-1H-pyrrolo[2,3-b]pyridin-5-yl)carbamoyl]benzoic acid]	< 10
Cc1n[nH]c(C(=O)N(C)c2cnc3[nH]c(-c4ccccc4)cc3c2)c1C [P-2304, N,3,4-trimethyl-N-(2-phenyl-1H-pyrrolo[2,3-b]pyridin-5-yl)-1H-pyrazole-5-carboxamide]	< 10
Cc1n[nH]c(C(=O)Nc2cnc3[nH]c(-c4cccc5c4OCCO5)cc3c2)c1C [P-2305, N-[2-(2,3-dihydro-1,4-benzodioxin-5-yl)-1H-pyrrolo[2,3-b]pyridin-5-yl]-3,4-dimethyl-1H-pyrazole-5-carboxamide]	< 10
Cc1n[nH]c(C(=O)Nc2cnc3[nH]c(-c4cnn(C5CCN(C(=O)OC(C)(C)C)CC5)c4)cc3c2)c1C [P-2306, tert-butyl 4-[4-[5-[(3,4-dimethyl-1H-pyrazole-5-carbonyl)amino]-1H-pyrrolo[2,3-b]pyridin-2-yl]pyrazol-1-yl]piperidine-1-carboxylate]	< 10
Cc1n[nH]c(C(=O)Nc2cnc3[nH]c(C4=CCCCC4)cc3c2)c1C [P-2307, N-[2-(cyclohexen-1-yl)-1H-pyrrolo[2,3-b]pyridin-5-yl]-3,4-dimethyl-1H-pyrazole-5-carboxamide]	< 10

Biological target: c-kit mutant D816V (Homo sapiens (Human), UniProt P10721, D816V/DEL694-753)
Test: c-Kit mutant D816V biochemical assay (AlphaScreen)
Settings: c-kit D816V biochemical inhibitory activity
Description: The c-kit mutant D816V (or kinase domain thereof) is an active kinase in AlphaScreen. IC50 values are determined with respect to inhibition of c-Kit mutant D816V kinase activity, where inhibition of phosphorylation of a peptide substrate is measured as a function of compound concentration. Compounds to be tested were dissolved in DMSO to a concentration of 20 mM. These were diluted 30 μl into 120 μl of DMSO (4 mM) and 1 μl was added to an assay plate. These were then serially diluted 1:3 (50 μl to 100 μl DMSO) for a total of 8 points. Plates were prepared such that each kinase reaction is 20 μl in 1× kinase buffer (25 mM HEPES, pH 7.2, 8 mM MgCl2, 2 mM MnCl2, 50 mM NaCl, 0.01% Brij, 1 mM DTT, 0.01% BSA), 5% DMSO and 10 μM ATP. Substrate was 30 nM biotin-(E4Y)10 (EMD Millipore, Cat#12-440). C-kit mutant D816V kinase was at 0.75 ng per sample. After incubation of the kinase reaction for 30 minutes at room temperature, 5 μl of donor beads (Streptavidin coated beads (Perkin Elmer Life Science) final concentration 7.5 μg/ml) in stop buffer (25 mM Hepes pH 7.5, 100 mM EDTA, 0.01% BSA) was added, the sample was mixed and incubated for 20 minutes at room temperature before adding 5 μl of acceptor beads (PY20 coated beads (Perkin Elmer Life Science) final concentration 7.5 ug/ml) in stop buffer. The samples were incubated for 60 minutes at room temperature and the signal per well was read on EnVision reader. Phosphorylated substrate results in binding of the PY20 antibody and association of the donor and acceptor beads such that signal correlates with kinase activity. The signal vs. compound concentration was used to determine the IC50.
Recombinant c-kit mutant D816V (residues 551-934, kinase insertion domain residues 694-753 deleted) with a 6x-histidine N-terminal tag was expressed in E. coli Arctic Express (DE3) RIL (Stratagene). Cells were grown in Terrific Broth (TB) media to an OD600 of 0.6 at 37° C. at which temperature was reduced to 10° C., protein was induced with 1.0 mM IPTG for 18 hours and harvested by centrifugation at 8000×g for 20 minutes. Cells were re-suspended in 0.1M KPO4 pH 8.0, 250 mM NaCl, 10% Glycerol, 0.75% NP-40, 25 mM Imidazole, 5 mM BME with 0.2 mg/ml Lysosyme, 2.0 mM PMSF, 25 μg/ml DNAse I, incubated in ice for 30 minutes and lyzed with a cell disruptor (MicroFluidics). The lysate was clarified by centrifugation at 20,000×g for 2 hours. The protein was captured with Talon resin (Clontech). Contaminating proteins were washed off with 25 mM Tris-HCl pH 8.3, 250 mM NaCl, 15% Glycerol, 1% Triton X-100, and protein eluted using 100 mM EDTA. The protein was further purified using Gel Filtration column 26/600 Superdex 200 (GE) in 50 mM Tris-HCl, pH 8.0, 250 mM NaCl, 15% Glycerol, 5 mM BME. The protein was aliquoted and flash-frozen in liquid Nitrogen.

c-kit mutant D816V, sequence (P10721 other isoform, or with tags, fused parts or gaps D816V/del 694-753): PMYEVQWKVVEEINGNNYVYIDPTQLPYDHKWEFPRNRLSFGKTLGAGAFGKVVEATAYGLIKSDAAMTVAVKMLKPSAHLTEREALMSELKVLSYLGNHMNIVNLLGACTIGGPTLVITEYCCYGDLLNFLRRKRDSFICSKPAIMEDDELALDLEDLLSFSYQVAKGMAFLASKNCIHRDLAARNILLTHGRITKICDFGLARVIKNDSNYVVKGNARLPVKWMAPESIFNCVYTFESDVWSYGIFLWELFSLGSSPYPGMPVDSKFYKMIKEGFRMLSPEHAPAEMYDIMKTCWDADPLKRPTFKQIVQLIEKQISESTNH

SMILES	IC50 [µM]
NC(=O)c1cccc(NC(=O)c2cnc3[nH]c(-c4ccccc4)cc3c2)c1 [P-2003, N-(3-carbamoylphenyl)-2-phenyl-1H-pyrrolo[2,3-b]pyridine-5-carboxamide]	10 to 200
O=C(Nc1cnc2[nH]c(-c3ccccc3)cc2c1)c1cc(C2CC2)n[nH]1 [P-2009, 3-cyclopropyl-N-(2-phenyl-1H-pyrrolo[2,3-b]pyridin-5-yl)-1H-pyrazole-5-carboxamide]	10 to 200
O=C(Nc1cnc2[nH]c(-c3ccccc3)cc2c1)c1ccncn1 [P-2011, N-(2-phenyl-1H-pyrrolo[2,3-b]pyridin-5-yl)pyrimidine-4-carboxamide]	10 to 200
